Source: US8952024B2, “Herbicidal pyrimidone derivatives” (E I du Pont de Nemours and Company, priority 2009, dated 2015)

Tests used:
Assay type in all cases: in vivo
[1] = test system: naked crabgrass (Digitaria nuda); test: Test D pre-/postemergence plant response
Method in brief: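 Seeds in loam–sand blend treated preemergence, and plants at 1- to 4-leaf stage (2–18 cm) treated postemergence, with compounds in non-phytotoxic solvent with surfactant. Greenhouse for 14–21 days, then visual rating against controls, 0 (no effect) to 100 (complete control).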

[2] = test system: water seeded rice seedlings (Oryza sativa cv. ‘Japonica—M202’); test: Test E flooded paddy rice and weeds; details: applied to paddy water, 21 days, scale 0 to 100
Excerpt: (§1) Three plastic pots (ca. 16-cm diameter) for each application were partially filled with sterilized Tama silt loam soil comprising a 35:50:15 ratio of sand, silt and clay and 2.6% organic matter. Separate plantings for each of the three pots were as follows. Seeds from the U.S. of ducksalad (Heteranthera limosa), sedge (smallflower umbrella sedge, Cyperus difformis), ricefield bulrush (Scirpus mucronatus) and redstem (purple redstem, Ammannia coccinea), were planted into one 16-cm pot for each rate. Seeds from the U.S. of flatsedge (rice flatsedge, Cyperus iria), sprangletop (bearded (i.e. Brdd.) sprangletop, Leptochloa fascicularis), one stand of 9 or 10 water seeded rice seedlings (Oryza sativa cv. ‘Japonica—M202’), and two stands of 3 or 4 transplanted rice seedlings (Oryza sativa cv. ‘Japonica—M202’) were planted into one 16-cm pot for each rate. Seeds from the U.S. of barnyardgrass (Echinochloa crus-galli), late watergrass (Echinochloa oryzicola), early watergrass (Echinochloa oryzoides) and junglerice (Echinochloa colona) were planted into one 16-cm pot for each rate. Plantings were sequential so that crop and weed species were at the 2.0 to 2.5-leaf stage at time of treatment.
(§2) Potted plants were grown in a greenhouse with day/night temperature settings of 30/27° C., and supplemental balanced lighting was provided to maintain a 16-hour photoperiod. Test pots were maintained in the greenhouse until test completion.
(§3) At time of treatment, test pots were flooded to 3 cm above the soil surface, treated by application of test compounds directly to the paddy water, and then maintained at that water depth for the duration of the test. Effects of treatments on rice and weeds were visually evaluated by comparison to untreated controls after 21 days. Plant response ratings, summarized in Table E, are based on a scale of 0 to 100 where 0 is no effect and 100 is complete control. A dash (-) response means no test result.

[3] = test system: redstem (purple redstem, Ammannia coccinea); test: Test E flooded paddy rice and weeds; details: applied to paddy water, 21 days, scale 0 to 100
Excerpt: as §1, §2, §3

[4] = test system: junglerice (Echinochloa colona); test: Test E flooded paddy rice and weeds; details: applied to paddy water, 21 days, scale 0 to 100
Excerpt: as §1, §2, §3

[5] = test system: flatsedge (rice flatsedge, Cyperus iria); test: Test E flooded paddy rice and weeds; details: applied to paddy water, 21 days, scale 0 to 100
Excerpt: as §1, §2, §3

[6] = test system: sedge (smallflower umbrella sedge, Cyperus difformis); test: Test E flooded paddy rice and weeds; details: applied to paddy water, 21 days, scale 0 to 100
Excerpt: as §1, §2, §3

[7] = test system: late watergrass (Echinochloa oryzicola); test: Test E flooded paddy rice and weeds; details: applied to paddy water, 21 days, scale 0 to 100
Excerpt: as §1, §2, §3

[8] = test system: transplanted rice seedlings (Oryza sativa cv. ‘Japonica—M202’); test: Test E flooded paddy rice and weeds; details: applied to paddy water, 21 days, scale 0 to 100
Excerpt: as §1, §2, §3

[9] = test system: early watergrass (Echinochloa oryzoides); test: Test E flooded paddy rice and weeds; details: applied to paddy water, 21 days, scale 0 to 100
Excerpt: as §1, §2, §3

[10] = test system: barnyardgrass (Echinochloa crus-galli); test: Test E flooded paddy rice and weeds; details: applied to paddy water, 21 days, scale 0 to 100
Excerpt: as §1, §2, §3

[11] = test system: ducksalad (Heteranthera limosa); test: Test E flooded paddy rice and weeds; details: applied to paddy water, 21 days, scale 0 to 100
Excerpt: as §1, §2, §3

[12] = test system: ricefield bulrush (Scirpus mucronatus); test: Test E flooded paddy rice and weeds; details: applied to paddy water, 21 days, scale 0 to 100
Excerpt: as §1, §2, §3

[13] = Postemergence, 31 g ai/ha, scale 0 to 100
[14] = Postemergence, 62 g ai/ha, scale 0 to 100 (0 no effect, 100 complete control)
[15] = Postemergence, 125 g ai/ha, scale 0 to 100 (0 no effect, 100 complete control)
[16] = Preemergence, 16 g ai/ha, scale 0 to 100, 0 no effect, 100 complete control
[17] = Preemergence, 31 g ai/ha, scale 0 to 100 (0 no effect, 100 complete control)
[18] = Preemergence, 62 g ai/ha, scale 0 to 100
[19] = Preemergence, 125 g ai/ha, scale 0 to 100
[20] = Postemergence, 16 g ai/ha, scale 0 to 100

COCCn1c(-c2ccccc2)ncc(C(=O)C2=C(O)CCCC2=O)c1=O [Compound 85]
Plant response rating, Crabgrass, Naked [1, 13]: 50 | Plant response rating, Crabgrass, Naked [1, 14]: 75 | Plant response rating, Crabgrass, Naked [1, 15]: 80 | Plant response rating, Crabgrass, Naked [1, 16]: 0 | Plant response rating, Crabgrass, Naked [1, 17]: 95 | Plant response rating, Crabgrass, Naked [1, 18]: 95 | Plant response rating, Crabgrass, Naked [1, 19]: 98

O=C1CCCC(O)=C1C(=O)c1cnc(-c2ccccc2)n(CC2CCCO2)c1=O (stereo not shown) [Compound 59]
Plant response rating, Crabgrass, Naked [1, 13]: 30 | Plant response rating, Crabgrass, Naked [1, 14]: 50 | Plant response rating, Crabgrass, Naked [1, 15]: 70 | Plant response rating, Crabgrass, Naked [1, 20]: 20 | Plant response rating, Crabgrass, Naked [1, 16]: 0 | Plant response rating, Crabgrass, Naked [1, 17]: 0 | Plant response rating, Crabgrass, Naked [1, 18]: 65 | Plant response rating, Crabgrass, Naked [1, 19]: 95

COCCn1c(-c2cccc(C)c2)ncc(C(=O)C2=C(O)C3CCC(C3)C2=O)c1=O (stereo not shown) [Compound 233]
Plant response rating, Crabgrass, Naked [1, 13]: 50 | Plant response rating, Crabgrass, Naked [1, 14]: 60 | Plant response rating, Crabgrass, Naked [1, 15]: 70 | Plant response rating, Crabgrass, Naked [1, 20]: 30 | Plant response rating, Crabgrass, Naked [1, 16]: 0 | Plant response rating, Crabgrass, Naked [1, 17]: 0 | Plant response rating, Crabgrass, Naked [1, 18]: 65 | Plant response rating, Crabgrass, Naked [1, 19]: 65

COc1ccc(-n2c(-c3ccccc3)ncc(C(=O)C3=C(O)CCCC3=O)c2=O)cc1OC [Compound 218]
Plant response rating, Rice, Water Seeded, Flood ([2]; 32 g ai/ha): 15 | Plant response rating, Rice, Water Seeded, Flood ([2]; 64 g ai/ha): 0 | Plant response rating, Rice, Water Seeded, Flood ([2]; 125 g ai/ha): 20 | Plant response rating, Rice, Water Seeded, Flood ([2]; 250 g ai/ha): 35 | Plant response rating, Redstem, Flood ([3]; 32 g ai/ha): 65 | Plant response rating, Redstem, Flood ([3]; 64 g ai/ha): 65 | Plant response rating, Redstem, Flood ([3]; 125 g ai/ha): 75 | Plant response rating, Redstem, Flood ([3]; 250 g ai/ha): 80 | Plant response rating, Junglerice, Flood ([4]; 32 g ai/ha): 0 | Plant response rating, Junglerice, Flood ([4]; 64 g ai/ha): 0 | Plant response rating, Junglerice, Flood ([4]; 125 g ai/ha): 65 | Plant response rating, Junglerice, Flood ([4]; 250 g ai/ha): 100 | Plant response rating, Flatsedge, Rice, Flood ([5]; 32 g ai/ha): 75 | Plant response rating, Flatsedge, Rice, Flood ([5]; 64 g ai/ha): 70 | Plant response rating, Flatsedge, Rice, Flood ([5]; 125 g ai/ha): 70 | Plant response rating, Flatsedge, Rice, Flood ([5]; 250 g ai/ha): 75 | Plant response rating, Sedge, Umbrella, Flood ([6]; 32 g ai/ha): 85 | Plant response rating, Sedge, Umbrella, Flood ([6]; 64 g ai/ha): 95 | Plant response rating, Sedge, Umbrella, Flood ([6]; 125 g ai/ha): 100 | Plant response rating, Sedge, Umbrella, Flood ([6]; 250 g ai/ha): 100 | Plant response rating, Watergrass, Late, Flood ([7]; 32 g ai/ha): 20 | Plant response rating, Watergrass, Late, Flood ([7]; 64 g ai/ha): 40 | Plant response rating, Watergrass, Late, Flood ([7]; 125 g ai/ha): 40 | Plant response rating, Watergrass, Late, Flood ([7]; 250 g ai/ha): 70 | Plant response rating, Rice, Transplanted, Flood ([8]; 32 g ai/ha): 0 | Plant response rating, Rice, Transplanted, Flood ([8]; 64 g ai/ha): 0 | Plant response rating, Rice, Transplanted, Flood ([8]; 125 g ai/ha): 0 | Plant response rating, Rice, Transplanted, Flood ([8]; 250 g ai/ha): 10 | Plant response rating, Watergrass, Early, Flood ([9]; 32 g ai/ha): 0 | Plant response rating, Watergrass, Early, Flood ([9]; 64 g ai/ha): 20 | Plant response rating, Watergrass, Early, Flood ([9]; 125 g ai/ha): 20 | Plant response rating, Watergrass, Early, Flood ([9]; 250 g ai/ha): 60 | Plant response rating, Barnyardgrass, Flood ([10]; 32 g ai/ha): 0 | Plant response rating, Barnyardgrass, Flood ([10]; 64 g ai/ha): 0 | Plant response rating, Barnyardgrass, Flood ([10]; 125 g ai/ha): 30 | Plant response rating, Barnyardgrass, Flood ([10]; 250 g ai/ha): 95 | Plant response rating, Ducksalad, Flood ([11]; 32 g ai/ha): 80 | Plant response rating, Ducksalad, Flood ([11]; 64 g ai/ha): 85 | Plant response rating, Ducksalad, Flood ([11]; 125 g ai/ha): 95 | Plant response rating, Ducksalad, Flood ([11]; 250 g ai/ha): 100 | Plant response rating, Bulrush, Ricefield, Flood ([12]; 32 g ai/ha): 80 | Plant response rating, Bulrush, Ricefield, Flood ([12]; 64 g ai/ha): 80 | Plant response rating, Bulrush, Ricefield, Flood ([12]; 125 g ai/ha): 90 | Plant response rating, Bulrush, Ricefield, Flood ([12]; 250 g ai/ha): 100
